The text below walks through data of US8183001B2 (priority 2006, dated 2012).

The test system of experiment [1] is mammalian GABAA receptor with α1 subunit XY segment replaced with UNC-49B XY sequence. The experiment in a line: Neurosteroid positive modulation, subunits expressed in Xenopus oocytes. Type of experiment: cell-based. Conditions: altered receptor compared to the wild-type receptor. Here is the method: It has been shown that one variant of the XY segment conferred high PS sensitivity (the UNC-49C sequence) (Example 1), while another variant of the XY segment conferred low PS sensitivity (the UNC-49B sequence). Subunits of mammalian GABAA receptors also contain an XY segment. It was tested whether neurosteroid sensitivity of mammalian receptors similarly depended on their XY segments. The mammalian XY segment (within the α1 subunit) was replaced with the low-sensitivity UNC-49B XY sequence variant. […] Both positive and negative modulation of GABAA receptors are therapeutically beneficial.

In experiment [2] the target is T1, UNC-49B homomer (GABA receptor) (Caenorhabditis elegans, UniProt G5ECD3).
T1 construct: homopentamer; two-electrode voltage clamp
T1 sequence (G5ECD3 23-506): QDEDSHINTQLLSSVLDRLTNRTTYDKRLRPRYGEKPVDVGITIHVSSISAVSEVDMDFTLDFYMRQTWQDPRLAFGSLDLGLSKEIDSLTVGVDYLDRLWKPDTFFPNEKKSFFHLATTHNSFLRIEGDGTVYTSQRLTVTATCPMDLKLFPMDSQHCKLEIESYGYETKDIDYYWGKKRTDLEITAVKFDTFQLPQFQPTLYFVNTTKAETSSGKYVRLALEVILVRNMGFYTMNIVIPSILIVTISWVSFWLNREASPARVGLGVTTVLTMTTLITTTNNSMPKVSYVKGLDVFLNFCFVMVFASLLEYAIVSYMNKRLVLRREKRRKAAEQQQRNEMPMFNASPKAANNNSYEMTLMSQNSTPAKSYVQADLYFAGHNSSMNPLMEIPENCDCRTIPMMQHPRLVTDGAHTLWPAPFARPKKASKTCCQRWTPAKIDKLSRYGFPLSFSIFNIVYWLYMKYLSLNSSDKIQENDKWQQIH
The experiment in a line: Pentobarbital enhancement of UNC-49B homomer (FIG. 14B, allosteric regulation of UNC-49). Type of experiment: cell-based. The protocol: (§1) Like their mammalian homologs, UNC-49 subunits contain a large extracellular amino terminal region, and four transmembrane domains labeled M1-M4.
(§2) Electrophysiology: Plasmids containing wild-type and mutagenized GABAA receptor subunits were linearized and transcribed in vitro using T3 RNA polymerase (mMessage mMachine T3 kit, Ambion, Austin Tex.). UNC-49B mRNA was injected into Xenopus laevis oocytes at 0.5 μg/μl either alone, or in a mixture with 0.5 μg/μl UNC-49C. […] The injection volume ranged between 27.6 nl to 50.6 nl. […] Cells were voltage clamped at −60 mV. All recordings were performed at room temperature.

The target in experiment [3] is T2, UNC-49B homomer (Caenorhabditis elegans, UniProt G5ECD3). In kind it is cell-based, C. elegans. Here is the method:
as §2

Experiment [4] deals with T2, UNC-49B homomer. The conditions noted are these: UNC-49B homomers; Bamber et al., 2003; cited from earlier work.
Experiment [5] concerns the target T3, UNC-49B/C heteromer (Caenorhabditis elegans, UniProt G5ECD3+G5EE10). Conditions: UNC-49B/C heteromers; Bamber et al., 2003; cited from earlier work.
For a further experiment, the system named is B-β3 chimera. Put plainly: Pregnanolone response of B-β3 chimera. Type of experiment: cell-based. The source says:
A) Structure of the B-β3 chimera. B) The B-β3 chimera is enhanced by pregnanolone.

Another experiment has as its target QF-R (Caenorhabditis elegans, UniProt G5ECD3, N259Q/N305R/V261F). Type of experiment: cell-based, C. elegans. The conditions noted are these: QF-R subunit compared with wild-type UNC-49B and Y chimera; at EC50 GABA. The protocol:
as §2
The conserved residues were tested in the UNC-49C M1 domain in a similar way. […] To test the importance of these conserved residues, they were substituted into an UNC-49B subunit with the linker mutation N305R to create the ‘QF-R’ subunit (FIG. 3c).

Experiment [6] addresses T3, UNC-49B/C heteromer. In kind it is cell-based. Conditions: UNC-49B/C heteromers. Here is the method:
as §2

The next experiment has as its target Y chimera (Caenorhabditis elegans, UniProt G5ECD3, I265S/I267V/I270L/N259Q/N305R/T269V/V261F/V273I). Type of experiment: cell-based, C. elegans. The conditions noted are these: Y chimera compared with wild-type UNC-49B and QF-R subunit; at EC50 GABA. The protocol: as §2
For a further experiment, the system named is UNC-49B-PS7. In kind it is cell-based, C. elegans. The conditions noted are these: UNC-49B-PS7 versus UNC-49B/C heteromer; at EC50 GABA. Here is the method:
as §2

Experiment [7] concerns the target T1, UNC-49B homomer (GABA receptor). Put plainly: Picrotoxin inhibition of GABA-evoked currents, UNC-49B homomer (FIG. 14A; two-electrode voltage clamp, Xenopus oocytes). Type of experiment: cell-based. Conditions: co-application of GABA and picrotoxin. The protocol:
as §1, §2
For orientation: Two-electrode voltage clamp is typically applied to oocytes expressing channels or transporters.

For experiment [8], the target named is T4, UNC-49B/C heteromer (GABA receptor) (Caenorhabditis elegans, UniProt G5ECD3+G5EE10).
T4 construct: two-electrode voltage clamp
T4 sequence (G5ECD3 23-506): as above
T4 sequence (G5EE10 entry or part of it): as the sequence (G5ECD3 23-506) above
Put plainly: Picrotoxin inhibition of GABA-evoked currents, UNC-49B/C heteromer (FIG. 14A; two-electrode voltage clamp, Xenopus oocytes). Type of experiment: cell-based. Conditions: co-application of GABA and picrotoxin. Here is the method: as §1, §2

Like-named read-outs stand apart in the source and are kept apart here.

T2 sequence (G5ECD3 entry or part of it): as the sequence (G5ECD3 23-506) above
T3 sequence (G5EE10 entry or part of it): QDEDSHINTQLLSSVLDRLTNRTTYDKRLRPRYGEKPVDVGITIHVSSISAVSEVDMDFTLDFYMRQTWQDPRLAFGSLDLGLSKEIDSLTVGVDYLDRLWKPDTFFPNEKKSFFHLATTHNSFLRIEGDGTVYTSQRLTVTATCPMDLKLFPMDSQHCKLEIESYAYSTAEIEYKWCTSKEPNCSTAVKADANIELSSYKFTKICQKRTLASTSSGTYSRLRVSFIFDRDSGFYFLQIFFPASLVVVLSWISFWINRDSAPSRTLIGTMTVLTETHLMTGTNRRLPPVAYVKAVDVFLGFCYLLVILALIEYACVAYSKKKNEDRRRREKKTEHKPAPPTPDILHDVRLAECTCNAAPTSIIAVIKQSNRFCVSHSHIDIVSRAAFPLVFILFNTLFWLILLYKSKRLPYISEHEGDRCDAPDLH
T3 sequence (G5ECD3 entry or part of it): as the sequence (G5ECD3 23-506) above
Y chimera, sequence (G5ECD3 23-506, stated change not applied): as the sequence (G5ECD3 23-506) above
QF-R, sequence (G5ECD3 23-506, stated change not applied): as the sequence (G5ECD3 23-506) above

`C[C@]12CC[C@@H](O)C[C@@H]1CC[C@@H]1[C@@H]2CC[C@]2(C)[C@@H](C(=O)CO)CC[C@@H]12` [5α-3α-THDOC]: the “positive modulation by neurosteroid” value in [1] is listed as “greatly-reduced positive modulation”.
What is called EC50 is the midpoint of the concentration-response curve. For `CCCC(C)C1(CC)C(=O)NC(=O)NC1=O` (centres unmarked) [PB, pentobarbital], the EC50 in experiment [2] was 369 ± 23.1 µM.
`CCCC(C)C1(CC)C(=O)NC(=O)NC1=O` (centres unmarked) [Pentobarbital]: at UNC-49B homomer [3], the pentobarbital enhancement entry is listed as “more strongly than UNC-49B/C heteromers”.
Regarding `CC(=O)[C@H]1CC[C@H]2[C@@H]3CC[C@@H]4C[C@H](O)CC[C@]4(C)[C@H]3CC[C@]12C` [pregnanolone], the pregnanolone modulation entry at UNC-49B homomer [4] is “inhibited”; at UNC-49B/C heteromer [5], “inhibited”; in the experiment on B-β3 chimera, “enhanced”; at UNC-49B homomer [3] (UNC-49B homomer), “inhibits, rather than enhances”. The “direct activation by pregnanolone” value is given as “directly activated” with B-β3 chimera and “fails to directly activate” at UNC-49B homomer [3] (UNC-49B homomer).
With picrotoxin [listing 1 of 2 here], the picrotoxin sensitivity entry on QF-R is “identical”; at UNC-49B homomer [3] (wild-type UNC-49B compared with QF-R subunit and Y chimera (UNC-49B curve from Bamber et al. 2003)), “identical”; on Y chimera, “identical”. The picrotoxin inhibition result is on record as “only weakly inhibits” on UNC-49B/C heteromer [6] and “strongly inhibits” on UNC-49B homomer [3] (UNC-49B homomers). For the same molecule, in the experiment with UNC-49B-PS7, the “fold difference in picrotoxin sensitivity” value was 50 fold.
One may read the IC50 as the concentration that inhibits the measured activity by half. Higher therefore signals lower potency. With picrotoxin [listing 2 of 2 here], the IC50 in [7] was determined as 890 ± 150 nM; in experiment [8] it was 166 ± 42 µM.
